Experiments:
[1] = Oral bioavailability in rat; format: ADME, organism-based; settings: in vivo
[2] = Volume of distribution at steady state in rat; format: ADME, organism-based; settings: in vivo, read-out: Vdss
physchem = settings: octanol/water
in vitro [3] = settings: human, Caco-2
in vitro [4] = settings: human, Caco-2; remark: listed apart in the source

SMILES | bioavailability [1] [%] | Vd [2] [L/kg] | logD (physchem) | Papp B→A (in vitro [3]) [nm/s] | Papp A→B (in vitro [4]) [nm/s]
CC(C)(C)CCC1(C(=O)c2ccc(Cl)c(Cl)c2)CCNC1 (single isomer, unassigned; (+)) | 57 | 14.3 | – | – | –
CCCC1(C(=O)c2ccc3[nH]ccc3c2)CCCN1 (stereo not drawn) | – | – | 1.45 | 100 | 410
CC(C)OCC1(C(=O)c2ccc(N)c(Cl)c2)CCCN1 (single isomer, unassigned; (+)) | – | – | 0.84 | 180 | 300
CNCC[C@H](Oc1cccc2ccccc12)c1cccs1 [DULOXETINE] | 22 | 20.9 | – | – | –
CC(C)(C)CCC1(C(=O)c2ccc3[nH]ncc3c2)CCCN1 (stereo not drawn) | – | – | 2.03 | 120 | 200
O=C(c1ccc2[nH]ccc2c1)C1(Cc2ccccc2)CCNC1 (stereo not drawn) | – | – | – | 190 | 170
CCCC1(C(=O)c2ccc3[nH]ncc3c2)CCCN1 (stereo not drawn) | – | – | 1 | 160 | 290
CC(C)CC1(C(=O)c2ccc3[nH]ncc3c2)CCCN1 (stereo not drawn) | – | – | 1 | 200 | 320
CC(C)(C)CCC1(C(=O)c2cc(F)c3[nH]ccc3c2)CCNC1 (single isomer, unassigned; (+)) | 5 | 14 | – | – | –

Source: ChEMBL document CHEMBL1221322, “Design, synthesis, and biological evaluation of new monoamine reuptake inhibitors with potential therapeutic utility in depression and pain” (Bioorg Med Chem Lett, 2010)
